Laboratory results as given in patent US10787465B2, “Lanthanide toolbox for organelle specific molecular imaging with multi-color” (New Life Medicine Technology Company Limited, priority 2017, dated 2020).

Tests used:
HeLa cells [1] = assay: MTT cell cytotoxicity assay, HeLa; format: cell-based, Human; settings: Incubation time = 24 hours
Protocol: (§1) Human cervical cancer HeLa cells were grown in Dulbecco's Modified Eagle Medium (DMEM). Human lung normal diploid fibroblasts MRC-5 and neuroblastoma cells SK-N-SH were provided by Cell resource center of Shanghai Institute of Biological Sciences, Chinese Academy of Sciences; and cultured in MEM (GIBCO 41500034); Human derived liver cells QSG-7701 cells were grown in RPMI-1640 (GIBCO 31800022); all cells were supplemented with 10% (v/v) fetal bovine serum, 1% penicillin and streptomycin at 37° C. and 5% CO2.
(§2) HeLa, SKA-SH, QSG-7701 or MRC-5 cells treated with testing complexes for 24 hours were further incubated with MTT, 3-(4,5-dimethylthiazol-2-yl)-2 and 5-diphenyltetrazolium bromide (0.5 mg; ml) for 4 hours, to produce formazan during cell metabolism. Then, formazan was thoroughly dissolved by dimethyl sulfoxide (DMSO), and the absorbance of solutions was measured in Bio-Rad iMark microplate reader (570 nm). Quadruplicates were performed. Data analysis and plotting were operated by the GraphPad Prism 5 software.

SK-N-SH cells = assay: MTT cell cytotoxicity assay, SK-N-SH; format: cell-based, Human; settings: Incubation time = 24 hours
Protocol: as §1, §2

MRC-5 cells = assay: MTT cell cytotoxicity assay, MRC-5; format: cell-based, Human; settings: Incubation time = 24 hours
Protocol: as §1, §2

[2] = tested on: organelles (mitochondria, lysosome and Golgi apparatus); assay: Co-localization imaging with organelle probes; format: cell-based, Human; settings: HeLa cells, 10 μM, 6 hours, MitoTracker Green FM
Protocol: (b) Co-Localization Imaging of HGEu001 and HGEu002 with Organelles.
Live cell labeling probes of organelles (mitochondria, lysosome and Golgi apparatus) MitoTracker® Green FM (M-7514), LysoTracker® Green DND-26 (L-7526) and GolgiTracker® Oregon Green (W6748, Wheat Germ Agglutinin) were respectively purchased from ThermoFisher Scientic Inc. and stocked in −20° C.
Three dishes of HeLa cells (1×10^5) were first incubated with 10 μM HGEu001/HGEu002 for 6 hours. Then organelles probes (50 nM, each) were added in parallel to the cells and further incubated for 15 minutes. The cells were washed by PBS 3 times before imaging on the linear fluorescence microscopy. Under the excitation of UV light (375 nm) emission from the channel (610-630 nm) were collected for the emission signals from HGEu001/HGEu002. Under 488 nm blue light excitation, imaging channel in the range between 505 and 555 nm were collected from the emission signal of organelles dyes.

QSG-7701 cells = assay: MTT cell cytotoxicity assay, QSG-7701; format: cell-based, Human; settings: Incubation time = 24 hours
Protocol: as §1, §2

HeLa cells [3] = assay: Two-photon confocal in vitro imaging (subcellular localization); format: cell-based, Human; settings: 10 μM; for localization of red emission: two-photon λex=700 nm
Protocol: Cells were seeded on coverslip in 35-mm culture dishes overnight. And then incubated with HGEu001 or HGEu002 (10 μM) for 6 hours, and the cells were washed by PBS 3 times before imaging. […] Then the unabsorbed complexes were washed out with PBS buffer and the cells were subject to microscopic imaging. The in vitro imaging of HGEu001 and HGEu002 were undertaken on a linear fluorescence microscopy under 375 nm UV light excitation or a confocal laser scanning microscope, Leica TCS SP8, equipped with a Ti:sapphire laser (Libra II, coherent). The excitation beam produced by 690 nm to 1080 nm (fs laser) was focused on the adherent cells through a 63× oil immersion objective.
3D images obtained by the Z-stacks form the two-photon confocal microscopy and the 3D reconstruction was done with built-in programs of Leica TCS SP8 confocal microscope.

[4] = Photophysical studies (absorption, emission, decay lifetime, quantum yield); format: physicochemical
Protocol: UV-Visible absorption spectra in the spectral range 200 to 1100 nm were recorded by an HP Agilent UV-8453 Spectrophotometer. The emission spectra and the emission decay lifetimes of HGEu001 and HGEu002 were measured by Horiba Fluorolog-3 spectrophotometer and also measured by Edinburgh instrument ELS920 spectrophotometer for cross checking. (Two spectrophotometers are equipped with a 450 W continuous xenon lamp for steady state emission measurement, 60 W xenon flashlamp for emission life time measurement and an UV-Vis PMT detector—Hamamatsu—R928 cooled 216 at −20° C.)
UV-Visible absorption spectra of HGEu001-Coumarin and HGEu001-Por were recorded by an HP Agilent UV-8453 Spectrophotometer. The emission spectra of HGEu001-Coumarin and HGEu001-Por were measured by Horiba Fluorolog-3 spectrophotometer, which was equipped with a 450 W continuous xenon lamp and a UV-Vis PMT detector—Hamamatsu—R928 cooled 216 at −20° C. for steady state emission measurement.

GFP-ARL13B = assay: Co-localization imaging with primary cilia marker GFP-ARL13B; format: cell-based, Human; settings: HeLa cells, 10 μM
Excerpt: (§3) (a) 3D Co-Localization Imaging of HGEu001 and HGEu002 with Primary Cilia Markers ARTL13B and IFT88.
(§4) Full length ARTL13B (ADP-ribosylation factor-like protein 13B) was PCR amplified from cDNA library and inserted into multiple cloning sites (MCS) of pEGFP-C3 (CLONETECH, #6082-1) using restriction digestion sites of XhoI/EcorI for GFP-ARTL13B expression. […] Plasmid mEmerald-IFT88-N-18 (intraflagellar transport protein 88 homolog) expressing GFP-IFT88 was a gift from Michael Davidson (Addgene plasmid #54125). Plasmids were amplified in E. coli (DH5α) and purified using a StarPrep Plasmid Miniprep Kit (Genstar). Both GFP-ARL13B and GFP-ITF88 for primary cilium tracking were expressed in HeLa cells through lipofectamine2000 (Cat. No.11668-019, Invitrogen) mediated transfection. Briefly, a 3.5 cm dish of HeLa cells (with 70-80% confluent) was transfected with 4 μg DNA plus 4 μL lipotectamine2000 mixture according to the manufacturer instructions. After incubation for 8 hours, 10 μM of HGEu001 or HGEu002 were added and incubated for 6 hours.

GFP-IFT88 = assay: Co-localization imaging with primary cilia marker GFP-IFT88; format: cell-based, Human; settings: HeLa cells, 10 μM, 6 hours, z stack, λex=700 nm
Excerpt: as §3, §4

## CC(C)(C)NC(=O)CN1CCN(CC(=O)NC(C)(C)C)CCN(Cc2cc(C#Cc3ccc(NC(=O)c4ccc(C(F)(F)F)cc4)cc3)ccn2)CCN(CC(=O)NC(C)(C)C)CC1.O.[Cl-].[Cl-].[Cl-].[Eu+3] [HGEu002]
HeLa cells [1]
  IC50: 417 µM
SK-N-SH cells
  IC50: 437 µM
MRC-5 cells
  IC50: 402 µM
[2]
  merged emission with green mito-tracker, three dimensional imaging: did not show merged yellow in vitro emission
QSG-7701 cells
  IC50: 410 µM
HeLa cells [3]; 3 hours incubation
  localization of red emission: localized in cytoplasm
HeLa cells [3]; 6 hours incubation
  localization of red emission: localized in cytoplasm
HeLa cells [3]; 6 hours, z stack, excitation at 700 nm
  europium emission in the rod-like organelles, three dimensional confocal images: did not show any europium emission in the rod-like organelles
HeLa cells [3]; 18 hours incubation
  localization of red emission: localized in cytoplasm
HeLa cells [3]; 24 hours incubation
  localization of red emission: localized in cytoplasm
[4]; D2O, λem = 614 nm, 5D0→7F2, λex = 340 nm
  τ(D2O), europium emission decay lifetime: 1.78 ms
[4]; H2O, λem = 614 nm, 5D0→7F2, λex = 340 nm
  τ(H2O), europium emission decay lifetime: 0.56 ms
[4]; in H2O, 298K
  ε (absorption coefficient): 22200 M⁻¹ cm⁻¹
  λmax (absorption): 327 nm
[4]; in H2O, by integrated sphere
  ΦL^Eu, overall europium emission quantum yield: 10.3%
[4]; q (±20%), from k(H2O) and k(D2O)
  q, derived hydration number: 0.9
GFP-ARL13B; 6 hour incubation after GFP transfection
  overlap of red emission with green emission of GFP-ARL13B (merged images): only slight yellow emission can be found in their merged images
GFP-ARL13B; 6 hours, z stack, λex=700 nm
  merged emission on co-staining with GFP-ARL13B, three dimensional imaging: did not show merged yellow in vitro emission
GFP-IFT88
  merged emission on co-staining with GFP-IFT88, three dimensional imaging: did not show merged yellow in vitro emission
